Assay results from patent US20080292619A1, “Pharmaceutical Composition Containing Meltrin Antagonist” (MOCHIDA PHARMACEUTICAL CO., LTD., priority 2004, published 2008).
In the oligonucleotide strings, read from the 5' end, every base follows the letter of its sugar. An asterisk marks phosphorothioate; unmarked linkages are phosphodiester. Other units and linkages are bracketed, terminal groups are in braces. A string of capitals states the bases alone. d = 2'-deoxy (DNA)

Tested on: human meltrin α RNA
Test: Suppression of human meltrin α expression by antisense compound in RD cell (real time PCR)
Format: cell-based
Settings: RD cell
In short: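 RD cells transfected with heat-denatured antisense oligodeoxynucleotide plus Lipofectin in Opti-MEM for 4 h at 37° C, then cultured 18 h. Meltrin α RNA quantified by TaqMan RT-PCR against plasmid standard curve, GAPDH-corrected; suppression vs untreated cells, rated +/++/+++ for ≥30/50/70%.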

| Substance | suppression rate of expression, 50 nM (corrected by GAPDH) | suppression rate of expression, 200 nM (corrected by GAPDH) | suppression rate of expression, 200 nM (chimeric 2′-methoxy antisense oligonucleotides) |
| --- | --- | --- | --- |
| H144 + 12: aggatctgcaggcagaggct (AGGATCTGCAGGCAGAGGCT; antisense; DNA, all phosphorothioate, methylation of C not given here) | +++ (“+++” when the suppression rate was at least 70%) | – | – |
| H144 + 14: agaggatctgcaggcagagg (AGAGGATCTGCAGGCAGAGG; antisense; DNA, all phosphorothioate, methylation of C not given here) | ++ (“++” when the suppression rate was at least 50%) | – | – |
| H070: ctgtccagtgtgtcatgatt (dC*dT*dG*dT*dC*dC*dA*dG*dT*dG*dT*dG*dT*dC*dA*dT*dG*dA*dT*dT; antisense) | – | + (“+” when the suppression rate was at least 30%) | – |
| H029: tggcaatgagaccttcattt (TGGCAATGAGACCTTCATTT; antisense; DNA, all phosphorothioate, methylation of C not given here) | – | + (“+” when the suppression rate was at least 30%) | – |
| H145 + 2: ttctggccagaggatctgca (dT*dT*dC*dT*dG*dG*dC*dC*dA*dG*dA*dG*dG*dA*dT*dC*dT*dG*dC*dA; antisense) | +++ (“+++” when the suppression rate was at least 70%) | – | – |
| H150 + 15: ggtggatctgggcacttggt (dG*dG*dT*dG*dG*dA*dT*dC*dT*dG*dG*dG*dC*dA*dC*dT*dT*dG*dG*dT; antisense) | + (“+” when the suppression rate was at least 30%) | – | – |
| H249: aaaaagacaatgcccacgta (DNA dA*dA*dA*dA*dA*dG*dA*dC*dA*dA*dT*dG*dC*dC*dC*dA*dC*dG*dT*dA; antisense) | – | ++ (“++” when the suppression rate was at least 50%) | – |
| H088: gagtccctgcacgctgttcc (dG*dA*dG*dT*dC*dC*dC*dT*dG*dC*dA*dC*dG*dC*dT*dG*dT*dT*dC*dC; antisense) | – | + (“+” when the suppression rate was at least 30%) | – |
| H040: ttgtatctgttggttgcact (TTGTATCTGTTGGTTGCACT; antisense; DNA, all phosphorothioate, methylation of C not given here) | – | + (“+” when the suppression rate was at least 30%) | – |
| H144: cagaggcttctgaggggggt (CAGAGGCTTCTGAGGGGGGT; antisense; DNA, all phosphorothioate, methylation of C not given here) | + (“+” when the suppression rate was at least 30%) | ++ (“++” when the suppression rate was at least 50%) | – |
| H015: cggccttcagtgcagcagct (CGGCCTTCAGTGCAGCAGCT; antisense; DNA, all phosphorothioate, methylation of C not given here) | ++ (“++” when the suppression rate was at least 50%) | + (“+” when the suppression rate was at least 30%) | – |
| H077-OMe2: chimeric antisense oligonucleotide AAACAggcacaccccCATTC, uppercase 2′-methoxy nucleotides, lowercase phosphorothioate nucleotides (AAACAGGCACACCCCCATTC; 2'-O-methyl at 1, 2, 3, 4, 5, 16, 17, 18, 19, 20, other sugars, backbone and T or U not given here; lowercase gap nucleotides phosphorothioate) | – | – | + (“+” when the suppression rate was at least 30%) |
| H221: gaaacatggctccctagtca (dG*dA*dA*dA*dC*dA*dT*dG*dG*dC*dT*dC*dC*dC*dT*dA*dG*dT*dC*dA; antisense) | – | + (“+” when the suppression rate was at least 30%) | – |
| H090: ggcccctgtgcagaactctg (dG*dG*dC*dC*dC*dC*dT*dG*dT*dG*dC*dA*dG*dA*dA*dC*dT*dC*dT*dG; antisense) | – | ++ (“++” when the suppression rate was at least 50%) | – |
| H210: ccccatagagaaggttcttt (dC*dC*dC*dC*dA*dT*dA*dG*dA*dG*dA*dA*dG*dG*dT*dT*dC*dT*dT*dT; antisense) | – | ++ (“++” when the suppression rate was at least 50%) | – |
| H143: ttggcttacaggtcccctgg (TTGGCTTACAGGTCCCCTGG; antisense; DNA, all phosphorothioate, methylation of C not given here) | + (“+” when the suppression rate was at least 30%) | +++ (“+++” when the suppression rate was at least 70%) | – |
| H006: tttccccccgtgtgtgtgcg (TTTCCCCCCGTGTGTGTGCG; antisense; DNA, all phosphorothioate, methylation of C not given here) | ++ (“++” when the suppression rate was at least 50%) | ++ (“++” when the suppression rate was at least 50%) | – |
| H145 + 10: ccgagttgttctggccagag (dC*dC*dG*dA*dG*dT*dT*dG*dT*dT*dC*dT*dG*dG*dC*dC*dA*dG*dA*dG; antisense) | ++ (“++” when the suppression rate was at least 50%) | – | – |

| Substance | suppression rate of expression, 50 nM (corrected by GAPDH) | suppression rate of expression, 200 nM (corrected by GAPDH) | suppression rate of expression, 200 nM (chimeric 2′-methoxy antisense oligonucleotides) |
| --- | --- | --- | --- |
| H079: tggcccccgaaagactccct (dT*dG*dG*dC*dC*dC*dC*dC*dG*dA*dA*dA*dG*dA*dC*dT*dC*dC*dC*dT; antisense) | – | ++ (“++” when the suppression rate was at least 50%) | – |
| H002: actgtccgagttggcccggg (ACTGTCCGAGTTGGCCCGGG; antisense; DNA, all phosphorothioate, methylation of C not given here) | – | ++ (“++” when the suppression rate was at least 50%) | – |
| H161: tacctgtgcaagtagacaga (dT*dA*dC*dC*dT*dG*dT*dG*dC*dA*dA*dG*dT*dA*dG*dA*dC*dA*dG*dA; antisense) | – | ++ (“++” when the suppression rate was at least 50%) | – |
| H123: caggatggtcaccagaattc (CAGGATGGTCACCAGAATTC; antisense; DNA, all phosphorothioate, methylation of C not given here) | – | + (“+” when the suppression rate was at least 30%) | – |
| H130 + 5: gagcctgacagggttggaag (GAGCCTGACAGGGTTGGAAG; antisense; DNA, all phosphorothioate, methylation of C not given here) | ++ (“++” when the suppression rate was at least 50%) | – | – |
| H150 + 5: ggcacttggtgtggatattg (dG*dG*dC*dA*dC*dT*dT*dG*dG*dT*dG*dT*dG*dG*dA*dT*dA*dT*dT*dG; antisense) | + (“+” when the suppression rate was at least 30%) | – | – |
| H148: cggagcccagtctcccattg (dC*dG*dG*dA*dG*dC*dC*dC*dA*dG*dT*dC*dT*dC*dC*dC*dA*dT*dT*dG; antisense) | + (“+” when the suppression rate was at least 30%) | ++ (“++” when the suppression rate was at least 50%) | – |
| H144 + 7: ctgcaggcagaggcttctga (CTGCAGGCAGAGGCTTCTGA; antisense; DNA, all phosphorothioate, methylation of C not given here) | ++ (“++” when the suppression rate was at least 50%) | – | – |
| H166: aacaagccttcctgccatgg (dA*dA*dC*dA*dA*dG*dC*dC*dT*dT*dC*dC*dT*dG*dC*dC*dA*dT*dG*dG; antisense) | – | ++ (“++” when the suppression rate was at least 50%) | – |
| H247: aacctttttaatagtatata (DNA dA*dA*dC*dC*dT*dT*dT*dT*dT*dA*dA*dT*dA*dG*dT*dA*dT*dA*dT*dA; antisense) | – | + (“+” when the suppression rate was at least 30%) | – |
| H145 + 4: tgttctggccagaggatctg (dT*dG*dT*dT*dC*dT*dG*dG*dC*dC*dA*dG*dA*dG*dG*dA*dT*dC*dT*dG; antisense) | ++ (“++” when the suppression rate was at least 50%) | – | – |
| H131 + 5: ttttccaaggtggccgaggt (TTTTCCAAGGTGGCCGAGGT; antisense; DNA, all phosphorothioate, methylation of C not given here) | + (“+” when the suppression rate was at least 30%) | – | – |
| H080: caaatctgttcccacacttc (dC*dA*dA*dA*dT*dC*dT*dG*dT*dT*dC*dC*dC*dA*dC*dA*dC*dT*dT*dC; antisense) | – | + (“+” when the suppression rate was at least 30%) | – |
| H178: ctccctgaaagccaaacaca (dC*dT*dC*dC*dC*dT*dG*dA*dA*dA*dG*dC*dC*dA*dA*dA*dC*dA*dC*dA; antisense) | – | + (“+” when the suppression rate was at least 30%) | – |
| H183: gtctgcaacccaggttctca (dG*dT*dC*dT*dG*dC*dA*dA*dC*dC*dC*dA*dG*dG*dT*dT*dC*dT*dC*dA; antisense) | – | ++ (“++” when the suppression rate was at least 50%) | – |
| H115: tggcactgcattgcacactc (dT*dG*dG*dC*dA*dC*dT*dG*dC*dA*dT*dT*dG*dC*dA*dC*dA*dC*dT*dC; antisense) | – | ++ (“++” when the suppression rate was at least 50%) | – |
| H144 + 16: ccagaggatctgcaggcaga (CCAGAGGATCTGCAGGCAGA; antisense; DNA, all phosphorothioate, methylation of C not given here) | ++ (“++” when the suppression rate was at least 50%) | – | – |
